Source: PMC4936777 (ACS chemical neuroscience, 2015)
≈ marks a conversion by molar mass, not a printed value. One block for each molecule: values may come before it.

Key:
[1] = target: T1, horse spleen apoferritin (HSAF) (Equus caballus, UniProt P02791); test: Isothermal titration calorimetry with HSAF; format: binding
T1 sequence (P02791 2-175 limits assumed): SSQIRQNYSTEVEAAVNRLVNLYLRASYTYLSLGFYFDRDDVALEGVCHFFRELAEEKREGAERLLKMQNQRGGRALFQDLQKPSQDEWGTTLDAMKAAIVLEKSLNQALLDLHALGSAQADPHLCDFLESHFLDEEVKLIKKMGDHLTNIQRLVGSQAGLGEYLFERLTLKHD

[2] = target: T1, horse spleen apoferritin (HSAF); test: 1-aminoanthracene; format: binding
[3] = target: T1, horse spleen apoferritin (HSAF); test: [3H]AziPm photolabel competition with HSAF; format: binding; conditions: One μM ligand
physchem = format: physicochemical; conditions: water, thermodynamic from solid
[4] = test system: albino Xenopus laevis tadpoles; format: in vivo
C57/Bl6 mice = test: Pharmacological activity and EEG in mice after IV bolus; format: in vivo, mouse
in vivo = conditions: C57/B6, mouse, iv
α1β2γ2L GABAA receptor = α1β2γ2L GABAA receptor (Homo sapiens, UniProt P14867+P18507+P47870); test: Two electrode voltage clamp of GABAA receptors expressed in X. laevis oocytes; format: cell-based; conditions: for modulation of GABA EC10 current: coexposure with GABA EC10, −80 mV; for direct activation of the receptor in the absence of GABA: fropofol at 5 and 50 μM
[5] = test system: isolated, intact rat trabecular muscle; test: Force development of isolated intact trabecular muscle; conditions: 100 μM
[6] = target: T2, human serum albumin (hSA) (Homo sapiens, UniProt P02768); conditions: single site binding model
[7] = target: human serum albumin (hSA) domain III (Homo sapiens, UniProt P02768); test: in vitro
[8] = target: T2, human serum albumin (hSA); test: biochemical

Structure (SMILES): CC(C)c1cccc(C(C)C)c1F [fropofol, 2-fluoro-1,3-diisopropylbenzene]
Kd [1]: 1.7 µM
fold increase in affinity for HSAF relative to propofol (ITC) ([1]; relative to propofol): 4- to 5 fold
Kd [2]: 0.7 µM
reduction in [3H]AziPm binding to HSAF [3]: 61%
solubility at 24 h (physchem): 116 ± 4.4 µM (≈ 20.9 µg/mL)
loss-of-mobility endpoints in tadpoles ([4]; 3–100 μM, 60 and 90 min exposure): none of the X. laevis tadpoles within any dose group exhibited the standard loss-of-mobility endpoints
time to resume normal swimming behaviors after exchange for fresh pond water ([4]; albino, Xenopus laevis, in vivo): 10 to 15 min
observable effects in mice (C57/Bl6 mice; 96 mg/kg, bolus tail vein injection, 10% lipid emulsion): no observable effects
toxicity in mice in the following days postinjection (C57/Bl6 mice; 180 mg/kg IV): no toxicity was observed
time to resume normal activity in mice (C57/Bl6 mice; C57/B6, mouse, in vivo): 2 to 3 h
EEG recording in mice (C57/Bl6 mice; mouse, in vivo): Phenotypical seizure activity
EEG recordings and physical observation in mice (C57/Bl6 mice; mouse, in vivo): generalized tonic-clonic seizure-like activity
loss of righting reflex in mice (C57/Bl6 mice; up to the highest dose): not with even the highest dose
concentration at 45 s (in vivo; 96 mg/kg): 38000 ng/g
concentration at 10 min (in vivo; 200 mg/kg): 51000 ng/g
effect on propofol positive modulation of the GABAA receptor (α1β2γ2L GABAA receptor; 50 μM fropofol, with GABA EC10 and propofol): no significant change
modulation of GABA EC10 current (α1β2γ2L GABAA receptor): no significant modulation or inhibition
direct activation of the receptor in the absence of GABA (α1β2γ2L GABAA receptor): no significant direct activation
effect on 5 μM propofol potentiation of GABAA receptor currents (α1β2γ2L GABAA receptor; saturating concentrations of fropofol, with GABA EC10): no significant alteration
depression (reduction) of maximum force development ([5]; LBN/F1, rat): 35 ± 1%
stoichiometry n for hSA (ITC) [6]: 1.3 ± 0.9
inhibition at 75 µM [7]: 37 ± 12%
Kd [8]: 91 µM

Hill coefficient (α1β2γ2L GABAA receptor; GABA concentration–response, mean ± SEM): 0.87 ± 0.04
Structure (SMILES): NCCCC(=O)O [GABA, γ-Aminobutyric acid, reference compound]

Structure (SMILES): CC(C)c1cccc(C(C)C)c1O [propofol, 2,6-diisopropylphenol, reference compound]
Kd [2]: 10 µM
reduction in [3H]AziPm binding to HSAF [3]: 31%
loss of righting reflex in mice (C57/Bl6 mice; 20 mg/kg): produced
modulation of GABA EC10 current (α1β2γ2L GABAA receptor): concentration-dependent increase in current up to 80 μM
direct activation of the receptor in the absence of GABA (α1β2γ2L GABAA receptor): minor direct activation
depression (reduction) of maximum force development ([5]; room temperature): 49 ± 4%
